Assay results: US6737383B1, “Herbicidal oxadiazolidines” (priority 1999, dated 2004)

What was measured:
bedstraw = test: Test B pre/postemergence bedstraw; assay type: in vivo, Galium aparine
How it was run: (§1)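 Test chemicals in a non-phytotoxic solvent mixture with surfactant were sprayed preemergence onto planted seeds and postemergence onto plants 2 to 18 cm tall (1- to 4-leaf stage). After twelve to sixteen days in a greenhouse, injury was visually rated against untreated controls from 0 (no effect) to 10 (complete control).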

blackgrass = test: Test B pre/postemergence blackgrass; assay type: in vivo, Alopecurus myosuroides
How it was run: as §1

surinam grass = test: Test B pre/postemergence surinam grass; assay type: in vivo, Brachiaria decumbens
How it was run: as §1

cocklebur = test: Test B pre/postemergence cocklebur; assay type: in vivo, Xanthium strumarium
How it was run: as §1

corn = test: Test B pre/postemergence corn; assay type: in vivo, Zea mays
How it was run: as §1

crabgrass = test: Test B pre/postemergence crabgrass; assay type: in vivo, Digitaria sanguinalis
How it was run: as §1

giant foxtail = test: Test B pre/postemergence giant foxtail; assay type: in vivo, Setaria faberii
How it was run: as §1

morningglory = test: Test B pre/postemergence morningglory; assay type: in vivo, Ipomoea hederacea
How it was run: as §1

pigweed = test: Test B pre/postemergence pigweed; assay type: in vivo, Amaranthus retroflexus
Text: (§2) Seeds of bedstraw (Galium aparine), blackgrass (Alopecurus myosuroides), surinam grass (Brachiaria decumbens), cocklebur (Xanthium strumarium), corn (Zea mays), crabgrass (Digitaria sanguinalis), giant foxtail (Setaria faberii), morningglory (Ipomoea hederacea), pigweed (Amaranthus retroflexus), rape (Brassica napus), soybean (Glycine max), sugar beet (Beta vulgaris), velvetleaf (Abutilon theophrasti), wheat (Triticum aestivum), wild oat (Avena fatua) and purple nutsedge (Cyperus rotundus) tubers were planted and treated preemnergence with test chemicals formulated in a non-phytotoxic solvent mixture which included a surfactant.
(§3) At the same time, these crop and weed species were also treated with postemergence applications of test chemicals formulated in the same manner. Plants ranged in height from 2 to 18 cm (1- to 4-leaf stage) for postemergence treatments. Plant species in the flood test consisted of rice (Oryza sativa), smallflower flatsedge (Cyperus difformis), duck salad (Heteranthera limosa) and bamyardgrass (Echinochloa crus-galli) grown to the 2-leaf stage for testing. Treated plants and controls were maintained in a greenhouse for twelve to sixteen days, after which all species were compared to controls and visually evaluated. Plant response ratings, summarized in Table B, are based on a scale of 0 to 10 where 0 is no effect and 10 is complete control. A dash (−) response means no test result.

rape = test: Test B pre/postemergence rape; assay type: in vivo, Brassica napus
How it was run: as §1

soybean = test: Test B pre/postemergence soybean; assay type: in vivo, Glycine max
How it was run: as §1

sugar beet = test: Test B pre/postemergence sugar beet; assay type: in vivo, Beta vulgaris
Text: as §2, §3

velvetleaf = test: Test B pre/postemergence velvetleaf; assay type: in vivo, Abutilon theophrasti
How it was run: as §1

wheat = test: Test B pre/postemergence wheat; assay type: in vivo, Triticum aestivum
How it was run: as §1

wild oat = test: Test B pre/postemergence wild oat; assay type: in vivo, Avena fatua
Text: as §2, §3

purple nutsedge = test: Test B pre/postemergence purple nutsedge; assay type: in vivo, Cyperus rotundus
How it was run: as §1

[1] = Postemergence, Rate 125 g/ha, scale of 0 to 10 where 0 is no effect and 10 is complete control
[2] = Preemergence, Rate 62 g/ha, scale of 0 to 10 where 0 is no effect and 10 is complete control
[3] = Preemergence, Rate 125 g/ha, 0 is no effect, 10 is complete control
[4] = Preemergence, Rate 250 g/ha, scale 0 to 10, 0 is no effect, 10 is complete control
[5] = Preemergence, Rate 500 g/ha, scale 0 to 10 (0 no effect, 10 complete control)
[6] = Rate 62 g/ha, Postemergence, scale of 0 to 10 where 0 is no effect and 10 is complete control
[7] = Rate 250 g/ha, Postemergence, scale 0 to 10, 0 is no effect, 10 is complete control
[8] = Rate 500 g/ha, Postemergence, scale 0 to 10

## CC(C)N(C(=O)n1oc(=O)n([C@H](C)c2ccccc2)c1=O)c1ccc(Cl)cc1 [Compound 178]
bedstraw; [1]
  Bedstraw plant response rating: 0
bedstraw; [2]
  Bedstraw plant response rating: 0
bedstraw; [3]
  Bedstraw plant response rating (0 to 10 scale): 0
bedstraw; [4]
  Bedstraw plant response rating: 0
bedstraw; [5]
  Bedstraw plant response rating: 0
bedstraw; [6]
  Bedstraw plant response rating: 0
bedstraw; [7]
  Plant response rating, Bedstraw: 0
bedstraw; [8]
  Bedstraw plant response rating: 0
blackgrass; [1]
  Blackgrass plant response rating: 0
blackgrass; [2]
  Blackgrass plant response rating: 0
blackgrass; [3]
  Blackgrass plant response rating (0 to 10 scale): 0
blackgrass; [4]
  Blackgrass plant response rating: 0
blackgrass; [5]
  Blackgrass plant response rating: 3
blackgrass; [6]
  Blackgrass plant response rating: 0
blackgrass; [7]
  Plant response rating, Blackgrass: 0
Surinam grass; [1]
  B. signalgrass plant response rating: 0
Surinam grass; [2]
  B. signalgrass plant response rating: 6
Surinam grass; [3]
  B. signalgrass plant response rating (0 to 10 scale): 7
Surinam grass; [4]
  B. signalgrass plant response rating: 8
Surinam grass; [5]
  B. signalgrass plant response rating: 9
Surinam grass; [6]
  B. signalgrass plant response rating: 0
Surinam grass; [7]
  Plant response rating, B. signalgrass: 0
Surinam grass; Rate 500 g/ha, Postemergence, scale 0 to 10, 0 no effect, 10 complete control
  B. signalgrass plant response rating: 2
cocklebur; [1]
  Cocklebur plant response rating: 0
cocklebur; [2]
  Cocklebur plant response rating: 0
cocklebur; [3]
  Cocklebur plant response rating (0 to 10 scale): 0
cocklebur; [4]
  Cocklebur plant response rating: 0
cocklebur; [5]
  Cocklebur plant response rating: 0
cocklebur; [6]
  Cocklebur plant response rating: 0
cocklebur; [7]
  Plant response rating, Cocklebur: 0
cocklebur; [8]
  Cocklebur plant response rating: 0
corn; [1]
  Corn plant response rating: 0
corn; [2]
  Corn plant response rating: 0
corn; [3]
  Corn plant response rating (0 to 10 scale): 0
corn; [4]
  Corn plant response rating: 0
corn; [5]
  Corn plant response rating: 0
corn; [6]
  Corn plant response rating: 0
corn; [7]
  Plant response rating, Corn: 0
corn; [8]
  Corn plant response rating: 0
crabgrass; [1]
  Crabgrass plant response rating: 0
crabgrass; [2]
  Crabgrass plant response rating: 0
crabgrass; [3]
  Crabgrass plant response rating (0 to 10 scale): 2
crabgrass; [4]
  Crabgrass plant response rating: 8
crabgrass; [5]
  Crabgrass plant response rating: 9
crabgrass; [6]
  Crabgrass plant response rating: 0
crabgrass; [7]
  Plant response rating, Crabgrass: 0
crabgrass; [8]
  Crabgrass plant response rating: 2
Giant foxtail; [1]
  Giant foxtail plant response rating: 0
Giant foxtail; [2]
  Giant foxtail plant response rating: 4
Giant foxtail; [3]
  Giant foxtail plant response rating (0 to 10 scale): 4
Giant foxtail; [4]
  Giant foxtail plant response rating: 8
Giant foxtail; [5]
  Giant foxtail plant response rating: 9
Giant foxtail; [6]
  Giant foxtail plant response rating: 0
Giant foxtail; [7]
  Plant response rating, Giant foxtail: 0
Giant foxtail; [8]
  Giant foxtail plant response rating: 2
morningglory; [1]
  Morningglory plant response rating: 2
morningglory; [2]
  Morningglory plant response rating: 0
morningglory; [3]
  Morningglory plant response rating (0 to 10 scale): 0
morningglory; [4]
  Morningglory plant response rating: 0
morningglory; [5]
  Morningglory plant response rating: 0
morningglory; [6]
  Morningglory plant response rating: 2
morningglory; [7]
  Plant response rating, Morningglory: 2
morningglory; [8]
  Morningglory plant response rating: 3
pigweed; [1]
  Redroot pigweed plant response rating: 7
pigweed; [2]
  Redroot pigweed plant response rating: 0
pigweed; [3]
  Redroot pigweed plant response rating (0 to 10 scale): 0
pigweed; [4]
  Redroot pigweed plant response rating: 6
pigweed; [5]
  Redroot pigweed plant response rating: 10
pigweed; [6]
  Redroot pigweed plant response rating: 0
pigweed; [8]
  Redroot pigweed plant response rating: 7
rape; [1]
  Rape plant response rating: 0
rape; [2]
  Rape plant response rating: 0
rape; [3]
  Rape plant response rating (0 to 10 scale): 0
rape; [4]
  Rape plant response rating: 0
rape; [5]
  Rape plant response rating: 0
rape; [6]
  Rape plant response rating: 0
rape; [7]
  Plant response rating, Rape: 0
rape; [8]
  Rape plant response rating: 0
soybean; [1]
  Soybean plant response rating: 1
soybean; [2]
  Soybean plant response rating: 0
soybean; [3]
  Soybean plant response rating (0 to 10 scale): 0
soybean; [4]
  Soybean plant response rating: 0
soybean; [5]
  Soybean plant response rating: 0
soybean; [6]
  Soybean plant response rating: 1
soybean; [7]
  Plant response rating, Soybean: 2
soybean; [8]
  Soybean plant response rating: 2
Sugar beet; [1]
  Sugarbeets plant response rating: 0
Sugar beet; [2]
  Sugarbeets plant response rating: 0
Sugar beet; [3]
  Sugarbeets plant response rating (0 to 10 scale): 0
Sugar beet; [4]
  Sugarbeets plant response rating: 0
Sugar beet; [5]
  Sugarbeets plant response rating: 0
Sugar beet; [6]
  Sugarbeets plant response rating: 0
Sugar beet; [7]
  Plant response rating, Sugarbeets: 0
Sugar beet; [8]
  Sugarbeets plant response rating: 0
velvetleaf; [2]
  Velvetleaf plant response rating: 0
velvetleaf; [3]
  Velvetleaf plant response rating (0 to 10 scale): 0
velvetleaf; [4]
  Velvetleaf plant response rating: 0
velvetleaf; [5]
  Velvetleaf plant response rating: 0
velvetleaf; [7]
  Plant response rating, Velvetleaf: 0
velvetleaf; [8]
  Velvetleaf plant response rating: 0
wheat; [2]
  Wheat plant response rating: 0
wheat; [3]
  Wheat plant response rating (0 to 10 scale): 0
wheat; [4]
  Wheat plant response rating: 0
wheat; [5]
  Wheat plant response rating: 0
wheat; [7]
  Plant response rating, Wheat: 0
wheat; [8]
  Wheat plant response rating: 2
Wild oat; [2]
  Wild oats plant response rating: 0
Wild oat; [3]
  Wild oats plant response rating (0 to 10 scale): 0
Wild oat; [4]
  Wild oats plant response rating: 0
Wild oat; [5]
  Wild oats plant response rating: 3
Wild oat; [7]
  Plant response rating, Wild oats: 0
Wild oat; [8]
  Wild oats plant response rating: 0
Purple nutsedge; [1]
  Nutsedge plant response rating: 0
Purple nutsedge; [2]
  Nutsedge plant response rating: 0
Purple nutsedge; [3]
  Nutsedge plant response rating (0 to 10 scale): 0
Purple nutsedge; [4]
  Nutsedge plant response rating: 0
Purple nutsedge; [5]
  Nutsedge plant response rating: 0
Purple nutsedge; [6]
  Nutsedge plant response rating: 0
Purple nutsedge; [7]
  Plant response rating, Nutsedge: 0
Purple nutsedge; [8]
  Nutsedge plant response rating: 0
